How the values were obtained:
[1] = molecular target: T1, Cyclin-dependent kinase 4 (Homo sapiens, UniProt P11802); assay: Inhibition of CDK4
[2] = molecular target: Cyclin-dependent kinase 1 (Homo sapiens, UniProt P06493); assay: Inhibition of CDK1
[3] = molecular target: Cyclin-dependent kinase 2 (Homo sapiens, UniProt P24941); assay: Inhibition of CDK2
[4] = molecular target: Cyclin-dependent kinase 5 (Homo sapiens, UniProt Q00535); assay: Inhibition of CDK5
[5] = molecular target: Cyclin-dependent kinase 7 (Homo sapiens, UniProt P50613); assay: Inhibition of CDK7
[6] = molecular target: Cyclin-dependent kinase 9 (Homo sapiens, UniProt P50750); assay: Inhibition of CDK9
EOL1 [7] = assay: Cell cycle arrest in Eol1 cells by accumulation at G1 phase; type: functional, Homo sapiens
[8] = molecular target: T1, Cyclin-dependent kinase 4; assay: Inhibition of pRb phosphorylation at Ser780 residue by CDK4; type: functional; conditions: concentration not given here
[9] = molecular target: Cyclin-dependent kinase 6 (Homo sapiens) (UniProt Q00534); assay: Inhibition of pRb phosphorylation at Ser780 residue by CDK6; type: functional; conditions: concentration not given here
EOL1 [10] = assay: Inhibition of pRb phosphorylation in Eol1 xenografted in nude rat at 510 nM, iv after 24 hrs; type: functional, Homo sapiens
EOL1 [11] = assay: Inhibition of BrdU incorporation in Eol1 xenografted in nude rat at 510 nM, iv after 24 hrs; type: functional, Homo sapiens

Cyclin-dependent kinase 1, sequence (P06493 whole entry): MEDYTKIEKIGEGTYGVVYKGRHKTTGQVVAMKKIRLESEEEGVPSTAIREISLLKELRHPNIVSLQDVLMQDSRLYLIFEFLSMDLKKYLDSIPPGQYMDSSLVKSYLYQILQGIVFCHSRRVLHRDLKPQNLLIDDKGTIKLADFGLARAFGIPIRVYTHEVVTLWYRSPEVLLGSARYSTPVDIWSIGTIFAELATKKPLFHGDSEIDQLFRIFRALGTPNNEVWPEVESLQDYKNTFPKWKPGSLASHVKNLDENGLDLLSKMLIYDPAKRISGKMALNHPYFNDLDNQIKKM
T1 sequence (P11802 whole entry): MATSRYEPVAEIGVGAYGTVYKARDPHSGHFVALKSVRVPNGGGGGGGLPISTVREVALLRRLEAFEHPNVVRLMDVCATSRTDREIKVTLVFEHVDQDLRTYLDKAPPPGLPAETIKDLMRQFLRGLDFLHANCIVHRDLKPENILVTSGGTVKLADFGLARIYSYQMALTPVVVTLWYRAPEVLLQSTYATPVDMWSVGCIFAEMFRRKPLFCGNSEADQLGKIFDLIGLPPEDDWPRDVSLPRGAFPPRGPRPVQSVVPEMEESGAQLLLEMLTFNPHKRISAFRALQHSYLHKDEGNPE
Cyclin-dependent kinase 7, sequence (P50613 whole entry): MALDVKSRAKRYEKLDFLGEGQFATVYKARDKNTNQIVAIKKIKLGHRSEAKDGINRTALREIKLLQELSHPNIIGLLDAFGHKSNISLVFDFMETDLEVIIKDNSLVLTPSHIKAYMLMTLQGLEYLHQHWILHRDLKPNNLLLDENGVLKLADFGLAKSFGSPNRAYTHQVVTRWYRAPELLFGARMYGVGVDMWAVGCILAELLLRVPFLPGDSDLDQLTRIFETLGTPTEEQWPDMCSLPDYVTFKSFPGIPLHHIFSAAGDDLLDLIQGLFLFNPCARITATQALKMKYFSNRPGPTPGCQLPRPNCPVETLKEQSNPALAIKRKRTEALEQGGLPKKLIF
Cyclin-dependent kinase 5, sequence (Q00535 whole entry): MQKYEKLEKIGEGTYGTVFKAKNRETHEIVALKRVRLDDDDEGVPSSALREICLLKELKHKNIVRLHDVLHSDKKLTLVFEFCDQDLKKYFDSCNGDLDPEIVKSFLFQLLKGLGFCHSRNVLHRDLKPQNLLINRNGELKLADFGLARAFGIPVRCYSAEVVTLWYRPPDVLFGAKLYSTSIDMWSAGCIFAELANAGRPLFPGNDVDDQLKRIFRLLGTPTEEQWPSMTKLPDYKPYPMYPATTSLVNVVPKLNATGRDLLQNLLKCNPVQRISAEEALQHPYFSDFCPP
Cyclin-dependent kinase 9, sequence (P50750 whole entry): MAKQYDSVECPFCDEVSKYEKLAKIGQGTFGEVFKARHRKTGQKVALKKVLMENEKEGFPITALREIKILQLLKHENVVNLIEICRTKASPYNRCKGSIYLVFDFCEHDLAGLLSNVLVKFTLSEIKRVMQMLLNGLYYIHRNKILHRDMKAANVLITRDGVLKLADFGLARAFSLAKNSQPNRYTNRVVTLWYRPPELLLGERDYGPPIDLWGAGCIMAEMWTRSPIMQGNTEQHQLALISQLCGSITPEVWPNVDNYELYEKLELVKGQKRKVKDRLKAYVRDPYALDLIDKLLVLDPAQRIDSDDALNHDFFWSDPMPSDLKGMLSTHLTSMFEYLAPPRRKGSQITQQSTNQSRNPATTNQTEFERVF
Cyclin-dependent kinase 6 (Homo sapiens), sequence (Q00534 whole entry): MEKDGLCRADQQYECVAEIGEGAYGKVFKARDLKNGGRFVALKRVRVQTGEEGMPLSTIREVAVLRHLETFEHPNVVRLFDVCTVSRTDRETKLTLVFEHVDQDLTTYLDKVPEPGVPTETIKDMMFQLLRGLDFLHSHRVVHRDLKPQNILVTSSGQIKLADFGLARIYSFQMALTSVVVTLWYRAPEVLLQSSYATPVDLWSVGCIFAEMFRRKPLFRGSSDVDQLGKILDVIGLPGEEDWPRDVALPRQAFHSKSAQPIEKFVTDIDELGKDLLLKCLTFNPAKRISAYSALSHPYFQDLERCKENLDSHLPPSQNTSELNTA

| SMILES | IC50 [1] [nM] | IC50 [2] [nM] | IC50 [3] [nM] | IC50 [4] [nM] | IC50 [5] [nM] | IC50 [6] [nM] | Activity (EOL1 [7]) [%] | inhibition [8] [%] | inhibition [9] [%] | Inhibition (EOL1 [10]) [%] | Inhibition (EOL1 [11]) [%] |
| --- | --- | --- | --- | --- | --- | --- | --- | --- | --- | --- | --- |
| Cc1cnc(OC2CCCCC2)nc1-c1cnc(Nc2ccccn2)s1 | 13 | > 1000 | 270 | > 10000 | 190 | 26 | – | – | – | – | – |
| Cc1cc(-c2cnc(Nc3cnc(CN4CCN(C)CC4)cn3)s2)nc(OC2CCCCC2)n1 | – | – | – | 3000 | – | – | 90 | > 80 | > 80 | 99 | 91 |
| Cc1cc(-c2cnc(Nc3ccccn3)s2)nc(OC2CCCCC2)n1 | 34 | > 10000 | > 10000 | > 10000 | > 10000 | > 10000 | – | – | – | – | – |
| c1ccc(Nc2ncc(-c3ccnc(OC4CCCCC4)n3)s2)nc1 | 4.2 | 24 | 14 | 34 | 20 | 2.5 | – | – | – | – | – |

— ChEMBL document CHEMBL1137419, “Identification of potent 5-pyrimidinyl-2-aminothiazole CDK4, 6 inhibitors with significant selectivity over CDK1, 2, 5, 7, and 9” (Bioorg Med Chem Lett, 2006)
